Source: US20140242595A1, “HEPATOCYTE PRODUCTION VIA FORWARD PROGRAMMING BY COMBINED GENETIC AND CHEMICAL ENGINEERING” (Cellular Dynamics International, Inc., priority 2013, published 2014)

Legend:
[1] = system: human rtTET-expressing ESCs transfected with GFH, H1AM and TBX3; test: Hepatic programming efficiency by albumin (ALB) flow analysis; type: cell-based; details: for % ALB-expressing cells (hepatic programming efficiency): 0.5 μM, alone, added along with doxycycline day 1 to day 7 post-plating, FIG. 6
From the text: Genes that are either implicated in hepatic differentiation during normal mammalian development or enriched in adult hepatocytes were cloned into the PiggyBac vector (FIG. 3) under the control of the […] promoter (Table 1). To find transcription factors that are able to directly impose mature hepatic fate upon human ESCs, various combinations of transgene-expressing PiggyBac vectors along with the hPBase-expressing vector were introduced into the human ESCs having constitutive expression of rtTET through nucleofection (Minis Ingenio Electroporation solution: cat#MIR50114; program: Amaxa B-016). Nucleofected human ESCs were cultured on matrigel in mTeSR1 (Stem Cell Technologies). Following geneticin (100 μg/ml) selection for stable genomic transgene integration (cells were passaged at lease once prior to differentiation), human ESCs were individualized by accutase treatment and plated to matrigel-coated 12-well plates. […] Where appropriate, small molecules, such as MEK inhibitor PD0325901, TGFβ kinase/activin receptor like kinase (ALK5) inhibitor A 83-01, and an analogue of the natural signaling molecule cyclic AMP 8-Bromoadenosine 3',5'-cyclic monophosphate (8-Br-cAMP), were added during hepatic programming. To determine the effect of MEK inhibitor PD0325901 (P) and TGFβ kinase/activin receptor like kinase (ALK5) inhibitor A 83-01 (A) on hepatic programming efficiency, human rtTET-expressing ESCs transfected with […] and TBX3 were plated on matrigel-coated 12-well plates at about 0.2×10^6 cells/well in mTeSR supplemented with 10 μM HA100 on day 0. […] Cells were collected for albumin (ALB) flow analysis on day 13 post-plating. […] Transfected cells were plated on matrigel-coated 12-well plates at about 0.2×10^6 cells/well in mTeSR supplemented with 10 μM HA100 on day 0. […] Cells were collected for ALB flow analysis on day 12 post-plating. […] With transgene expression, hepatocyte-like cells with polygonal shapes, distinct nuclei, and tight cell-cell contacts were readily observed. To determine the effect of cyclic AMP analog 8-Br-cAMP on hepatic programming, human rtTET-expressing ESCs transfected with […] and TBX3 were plated on matrigel-coated 12-well plates at about 0.2×10^6 cells/well in mTeSR supplemented with 10 μM HA100 on day 0. […] Cells were collected for ALB flow analysis on day 13 post-plating.

MEK = details: Bain et al., 2007; cited from earlier work

Compound: O=C(NOC[C@H](O)CO)c1ccc(F)c(F)c1Nc1ccc(I)cc1F [PD0325901]
- % ALB-expressing cells (hepatic programming efficiency) ([1]; ALB flow analysis day 13): significantly improves

Compound: Nc1ncnc2c1nc(Br)n2[C@@H]1O[C@@H]2COP(=O)(O)O[C@H]2[C@H]1O [8-Br-cAMP, 8-Bromoadenosine 3′,5′-cyclic monophosphate]
- saturation concentration for improved hepatic programming ([1]; added from day 7 after removal of doxycycline, P and A, ALB flow analysis day 13, FIG. 8): ~200 µM
- hepatic programming (ALB flow analysis) ([1]; different concentrations added from day 7 after removal of doxycycline, P and A, ALB flow analysis day 13, FIG. 8): significantly improved

Compound: C[C@H]1c2cccc(O)c2C(=O)C2=C(O)[C@]3(O)C(=O)C(C(N)=O)=C(O)[C@@H](N(C)C)[C@@H]3[C@@H](O)[C@@H]21 [Doxycycline]
- optimal time window for transgene induction for hepatic programming ([1]; doxycycline 1 μg/ml with P and A for 0, 2, 4, 6, 8 or 10 days, ALB flow analysis day 12, FIG. 7A): 4 days

Compound: O=C(NOCC1CC1)c1ccc(F)c(F)c1Nc1ccc(I)cc1Cl [PD184352]
- specificity and potency compared to other known MEK inhibitors (MEK): high degree of specificity and potency

Compound: Cc1cccc(-c2nn(C(=S)Nc3ccccc3)cc2-c2ccnc3ccccc23)n1 [A 83-01]
- % ALB-expressing cells (hepatic programming efficiency) ([1]; ALB flow analysis day 13): significantly improves
